{
  "source": "patent US4339440A",
  "about": "“Enkephalin analogs and a process for the preparation thereof” (priority 1980, dated 1982)",
  "key": {"[1]": {"system": "mouse vas deferens (MVD)", "conditions": "literature comparison of GPI and MVD preparations; cited from earlier work"}, "[2]": {"system": "anesthetized cats", "experiment": "Cardiovascular effects in cats anesthetized with pentobarbital (blood pressure, heart rate, vasomotor reflex elicited by carotis occlusion)", "format": "in vivo", "protocol": "In addition to the effects on the blood pressure and heart rate, the actions on the vasomotor reflex elicited by carotis occlusion, were also studied. […] The duration of the former effects was 20-25 min., while that of the latter was 40-60 min. […] It is noteworthy that the reference compound morphine […] hypotension of similar magnitude produced by 0.1 mg/kg of peptides only in doses higher than 1.0 mg/kg (Table 2).\n(a) Cats of both sexes, weighing 3000-4000 g, anesthetized with 35 mg/kg pentobarbital, i.p.\n(b) C.O.: Inhibition of vasomotor reflex elicited by carotis occlusion;"}},
  "note": "Square brackets hold non-standard residues; d marks the D form. Ends that are not written are not given here.",
  "data": [
    {"molecule": "β-Endorphine: β-Endorphine of natural occurrence (a 31-membered polypeptide) (YGGFMTSEKSQTPLVTLFKNAIIKNAYKKGE; Beta-endorphin; UniProt P01189 237-267, looked up)", "values": [
      {"measurement": "Activity on MVD compared with GPI (in words)", "setting": "[1]", "result": "equally active on GPI and MVD"}
    ]},
    {"molecule": "CN1CC[C@]23c4c5ccc(O)c4O[C@H]2[C@@H](O)C=C[C@H]3[C@H]1C5", "note": "[Morphine, morphine]", "values": [
      {"measurement": "Activity on MVD compared with GPI (in words)", "setting": "[1]", "result": "higher activity on GPI"},
      {"measurement": "Decrease of heart rate", "setting": "[2]; 0.2 mg/kg i.v.", "result": ".phi."},
      {"measurement": "Fall in blood pressure", "setting": "[2]; 0.2 mg/kg i.v.", "result": "6.7 ± 2.1", "unit": "mm Hg"},
      {"measurement": "Inhibition of C.O. (vasomotor reflex elicited by carotis occlusion)", "setting": "[2]; 0.2 mg/kg i.v.", "result": ".phi."},
      {"measurement": "Decrease of heart rate", "setting": "[2]; 1.0 mg/kg i.v.", "result": "10.2 ± 2.3", "unit": "beat/min."},
      {"measurement": "Fall in blood pressure", "setting": "[2]; 1.0 mg/kg i.v.", "result": "16.7 ± 3.2", "unit": "mm Hg"},
      {"measurement": "Inhibition of C.O. (vasomotor reflex elicited by carotis occlusion)", "setting": "[2]; 1.0 mg/kg i.v.", "result": "+ (inhibition is smaller than 50%)"},
      {"measurement": "Decrease of heart rate", "setting": "[2]; 5.0 mg/kg i.v.", "result": "16.7 ± 3.5", "unit": "beat/min."},
      {"measurement": "Fall in blood pressure", "setting": "[2]; 5.0 mg/kg i.v.", "result": "33.6 ± 6.7", "unit": "mm Hg"},
      {"measurement": "Inhibition of C.O. (vasomotor reflex elicited by carotis occlusion)", "setting": "[2]; 5.0 mg/kg i.v.", "result": "++ (inhibition is higher than 50%)"},
      {"measurement": "Dose eliciting hypotension of similar magnitude to that produced by 0.1 mg/kg of peptides", "setting": "[2]; i.v.", "result": "higher than 1.0 mg/kg"}
    ]},
    {"molecule": "Y[dM]GFP-NH2", "values": [
      {"measurement": "Activity on MVD compared with GPI (in words)", "setting": "[1]", "result": "the same level of activity on both preparations"}
    ]},
    {"molecule": "Tyr-D-Ala-Gly-MePhe-Met(O)-ol", "values": [
      {"measurement": "Activity on MVD compared with GPI (in words)", "setting": "[1]", "result": "twice as active on GPI as on MVD"}
    ]},
    {"molecule": "Tyr-D-Ala-Gly-Phe-D-Leu", "values": [
      {"measurement": "Activity on MVD compared with GPI (in words)", "setting": "[1]", "result": "more active on MVD than on GPI"}
    ]}
  ]
}
